This note sets out measurements from patent publication US10100049B2, “JAK kinase inhibitor compounds for treatment of respiratory disease” (THERAVANCE BIOPHARMA R&D IP, LLC, priority 2015, dated 2018).

One series concerns the target JAK1 (Homo sapiens (Human), UniProt P23458). Kind of series: LanthaScreen JAK biochemical assay (JAK1). The note with it: read-out: pKi, JAK1 enzyme assay (converted). A general note: Time-resolved FRET reads energy transfer from a long-lived donor to a nearby acceptor.
Series [1] deals with IL-13 induced STAT6 phosphorylation in BEAS-2B human lung epithelial cells. Kind of series: AlphaScreen cellular potency assay, IL-13 induced STAT6 phosphorylation in BEAS-2B cells. Type of series: cell-based. As to conditions: Homo sapiens. Background: Bead proximity is the source of the signal in Alpha formats.
Protocol: The AlphaScreen JAM cellular potency assay was carried out by measuring interleukin-13 (IL-13, R&D Systems) induced STAT6 phosphorylation in BEAS-2B human lung epithelial cells (ATCC). The anti-STAT6 antibody (Cell Signaling Technologies) was conjugated to AlphaScreen acceptor beads (Perkin Elmer), while the anti-pSTAT6 (pTyr641) antibody (Cell Signaling Technologies) was biotinylated using EZ-Link Sulfo-NHS-Biotin (Thermo Scientific).
BEAS-2B cells were grown at 37° C. in a 5% CO2 humidified incubator in 50% DMEM/50% F-12 medium (Life Technologies) supplemented with 10% FBS (Hyclone), 100 U/mL penicillin, 100 μg/mL streptomycin (Life Technologies), and 2 mM GlutaMAX (Life Technologies). On day 1 of the assay, cells were seeded at a 7,500 cells/well density in white poly-D-lysine-coated 384-well plates (Corning) with 25 μL medium, and were allowed to adhere overnight in the incubator. On day 2 of the assay, the medium was removed and replaced with 12 μL of assay buffer (Hank's Balanced Salt Solution/HBSS, 25 mM HEPES, and 1 mg/ml bovine serum albumin/BSA) containing dose-responses of test compounds. Compounds were serially diluted in DMSO and then diluted another 1000-fold in media to bring the final DMSO concentration to 0.1%. Cells were incubated with test compounds at 37° C. for 1 h, and followed by the addition of 12 μl of pre-warmed IL-13 (80 ng/ml in assay buffer) for stimulation. After incubating at 37° C. for 30 min, the assay buffer (containing compound and IL-13) was removed, and 10 μl of cell lysis buffer (25 mM HEPES, 0.1% SDS, 1% NP-40, 5 mM MgCl2, 1.3 mM EDTA, 1 mM EGTA, and supplement with Complete Ultra mini protease inhibitors and PhosSTOP from Roche Diagnostics). The plates were shaken at ambient temperature for 30 min before the addition of detection reagents. A mixture of biotin-anti-pSTAT6 and anti-STAT6 conjugated acceptor beads was added first and incubated at ambient temperature for 2 h, followed by the addition of streptavidin conjugated donor beads (Perkin Elmer). After a minimum of 2 h incubation, the assay plates were read on the EnVision plate reader.
Results were expressed as the negative logarithm of the IC50 value, pIC50.
Series [2] concerns IL-13 induced pSTAT6 in lung tissue. The experiment in a line: Murine model of IL-13 induced pSTAT6 induction in lung tissue. Type of series: in vivo. As to conditions: mouse lung; 0.5 mg/mL, 50 μL oral aspiration; IL-13 challenge 4 h after dosing, lungs collected 1 h later; read-out: pSTAT6 inhibition Assay 5. As to the method: Il-13 is an important cytokine underlying the pathophysiology of asthma (Kudlacz et al. Eur. J. Pharmacol, 2008, 582, 154-161). IL-13 binds to cell surface receptors activating members of the Janus family of kinases (JAK) which then phosphorylate STAT6 and subsequently activates further transcription pathways. In the described model, a dose of IL-13 was delivered locally into the lungs of mice to induce the phosphorylation of STAT6 (pSTAT6) which is then measured as the endpoint.
Adult balb/c mice from Harlan were used in the assay. On the day of study, animals were lightly anesthetized with isoflurane and administered either vehicle or test compound (0.5 mg/mL, 50 μL total volume over several breaths) via oral aspiration. Animals were placed in lateral recumbency post dose and monitored for full recovery from anesthesia before being returned to their home cage. Four hours later, animals were once again briefly anesthetized and challenged with either vehicle or IL-13 (0.03 μg total dose delivered, 50 μL total volume) via oral aspiration before being monitored for recovery from anesthesia and returned to their home cage. One hour after vehicle or IL-13 administration, lungs were collected for both pSTAT6 detection using an anti-pSTAT6 ELISA (rabbit mAb capture/coating antibody; mouse mAb detection/report antibody: anti-pSTAT6-pY641; secondary antibody: anti-mouse IgG-HRP) and analyzed for total drug concentration as described above in Assay 4.
Selected compounds of the invention were tested in the assay. Activity in the model is evidenced by a decrease in the level of pSTAT6 present in the lungs of treated animals at 5 hours compared to the vehicle treated, IL-13 challenged control animals. The difference between the control animals which were vehicle-treated, IL-13 challenged and the control animals which were vehicle-treated, vehicle challenged dictated the 0% and 100% inhibitory effect, respectively, in any given experiment.

The next series concerns the target JAK2 (Homo sapiens (Human), UniProt O60674).
Another series concerns the target Tyk2 (Homo sapiens (Human), UniProt P29597). The experiment in a line: LanthaScreen JAK biochemical assay (Tyk2). Also: ATP at Km 10 µM. As to conditions: read-out: Tyk 2 (PKi).
For series [3], the system named is Alternaria-induced BALF eosinophils. The experiment in a line: Murine model of Alternaria alternata-induced eosinophilic inflammation of the lung. The note with it: mouse; maximum statistically significant inhibition; 0.1-1.0 mg/mL, 50 μL oropharyngeal aspiration; BALF 48 h after alternaria. The format is in vivo. Here is the method:
Airway eosinophilia is a hallmark of human asthma. Alternaria alternata is a fungal aeroallergen that can exacerbate asthma in humans and induces eosinophilic inflammation in the lungs of mice (Havaux et al. Clin Exp Immunol. 2005, 139(2):179-88).
Seven- to nine-week old male C57 mice from Taconic were used in the study. On the day of study, animals were lightly anesthetized with isoflurane and administered either vehicle or test compound (0.1-1.0 mg/mL, 50 μL total volume over several breaths) via oropharyngeal aspiration. Animals were placed in lateral recumbency post dose and monitored for full recovery from anesthesia before being returned to their home cage. One hour later, animals were once again briefly anesthetized and challenged with either vehicle or alternaria extract (200 ug total extract delivered, 50 μL total volume) via oropharyngeal aspiration before being monitored for recovery from anesthesia and returned to their home cage. Forty-eight hours after alternaria administration, bronchoalveolar lavage fluid (BALF) was collected and eosinophils were counted in the BALF using the Advia 120 Hematology System (Siemens).
Selected compounds of the invention were tested in this alternaria assay. Activity in the model is evidenced by a decrease in the level of eosinophils present in the BALF of treated animals at forty-eight hours compared to the vehicle treated, alternaria challenged control animals. Data are expressed as percent inhibition of the vehicle treated, alternaria challenged BALF eosinophils response. To calculate percent inhibition, the number of BALF eosinophils for each condition is converted to percent of the average vehicle treated, alternaria challenged BALF eosinophils and subtracted from one-hundred percent.

For another series, the target named is JAK3 (Homo sapiens (Human), UniProt P52333). The experiment in a line: LanthaScreen JAK biochemical assay (JAK3). The note with it: ATP at Km 1.6 μM; read-out: JAK 3 (pKi) (converted).
Series [4] can be described thus: Pharmacokinetics in plasma and lung in mouse. As to conditions: oral aspiration 0.2 mg/mL 50 uL, lung AUC (μg hr/g) / plasma AUC (μg hr/mL). The format is in vivo. As to the method:
Plasma and lung levels of test compounds and ratios thereof were determined in the following manner. BALB/c mice from Charles River Laboratories were used in the assay. Test compounds were individually formulated in 20% propylene glycol in pH 4 citrate buffer at a concentration of 0.2 mg/mL and 50 uL of the dosing solution was introduced into the trachea of a mouse by oral aspiration. At various time points (typically 0.167, 2, 6, 24 hr) post dosing, blood samples were removed via cardiac puncture and intact lungs were excised from the mice. Blood samples were centrifuged (Eppendorf centrifuge, 5804R) for 4 minutes at approximately 12,000 rpm at 4° C. to collect plasma. Lungs were padded dry, weighed, and homogenized at a dilution of 1:3 in sterile water. Plasma and lung levels of test compound were determined by LC-MS analysis against analytical standards constructed into a standard curve in the test matrix. A lung to plasma ratio was determined as the ratio of the lung AUC in μg hr/g to the plasma AUC in μg hr/mL, where AUC is conventionally defined as the area under the curve of test compound concentration vs. time.

The mark [5] stands for this setting: BEAS-2B, read-out: BEAS-2B pIC50 (cellular potency) (converted).
Where [6] appears, read: IL-13 induced STAT6 phosphorylation, BEAS-2B cells, read-out: BEAS-2B pIC50 (converted).

Like-named read-outs stand apart in the source and are kept apart here.

Sequence of JAK2 (O60674 whole entry): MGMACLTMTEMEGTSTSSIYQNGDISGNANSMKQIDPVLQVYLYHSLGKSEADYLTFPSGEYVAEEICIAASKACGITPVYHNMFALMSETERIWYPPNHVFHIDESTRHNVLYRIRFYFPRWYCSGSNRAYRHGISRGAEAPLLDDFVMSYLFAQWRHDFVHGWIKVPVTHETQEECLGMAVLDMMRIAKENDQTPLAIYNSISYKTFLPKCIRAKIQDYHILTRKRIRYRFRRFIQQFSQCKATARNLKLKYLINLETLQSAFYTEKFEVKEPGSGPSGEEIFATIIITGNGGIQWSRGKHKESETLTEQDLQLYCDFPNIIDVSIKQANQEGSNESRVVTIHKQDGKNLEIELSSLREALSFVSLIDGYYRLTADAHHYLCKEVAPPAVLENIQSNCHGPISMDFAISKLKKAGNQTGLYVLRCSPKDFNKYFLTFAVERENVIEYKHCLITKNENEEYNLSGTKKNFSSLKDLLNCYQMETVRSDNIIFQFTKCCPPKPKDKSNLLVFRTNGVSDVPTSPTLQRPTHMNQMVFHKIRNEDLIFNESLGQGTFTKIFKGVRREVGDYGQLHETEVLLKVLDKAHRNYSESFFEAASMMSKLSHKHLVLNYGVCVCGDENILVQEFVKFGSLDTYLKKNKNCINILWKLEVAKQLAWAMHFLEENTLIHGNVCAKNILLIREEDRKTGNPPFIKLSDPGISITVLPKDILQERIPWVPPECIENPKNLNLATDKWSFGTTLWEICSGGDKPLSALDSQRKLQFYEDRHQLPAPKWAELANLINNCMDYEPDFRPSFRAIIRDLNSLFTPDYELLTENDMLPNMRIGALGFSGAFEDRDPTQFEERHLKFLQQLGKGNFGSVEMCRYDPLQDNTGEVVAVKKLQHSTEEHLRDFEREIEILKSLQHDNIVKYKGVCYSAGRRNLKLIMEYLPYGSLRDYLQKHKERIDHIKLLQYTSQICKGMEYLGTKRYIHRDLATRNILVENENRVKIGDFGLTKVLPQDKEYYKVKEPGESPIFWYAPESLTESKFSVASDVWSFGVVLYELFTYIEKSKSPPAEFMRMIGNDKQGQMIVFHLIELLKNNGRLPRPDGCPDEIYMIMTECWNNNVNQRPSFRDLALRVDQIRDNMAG
Sequence of Tyk2 (P29597 whole entry): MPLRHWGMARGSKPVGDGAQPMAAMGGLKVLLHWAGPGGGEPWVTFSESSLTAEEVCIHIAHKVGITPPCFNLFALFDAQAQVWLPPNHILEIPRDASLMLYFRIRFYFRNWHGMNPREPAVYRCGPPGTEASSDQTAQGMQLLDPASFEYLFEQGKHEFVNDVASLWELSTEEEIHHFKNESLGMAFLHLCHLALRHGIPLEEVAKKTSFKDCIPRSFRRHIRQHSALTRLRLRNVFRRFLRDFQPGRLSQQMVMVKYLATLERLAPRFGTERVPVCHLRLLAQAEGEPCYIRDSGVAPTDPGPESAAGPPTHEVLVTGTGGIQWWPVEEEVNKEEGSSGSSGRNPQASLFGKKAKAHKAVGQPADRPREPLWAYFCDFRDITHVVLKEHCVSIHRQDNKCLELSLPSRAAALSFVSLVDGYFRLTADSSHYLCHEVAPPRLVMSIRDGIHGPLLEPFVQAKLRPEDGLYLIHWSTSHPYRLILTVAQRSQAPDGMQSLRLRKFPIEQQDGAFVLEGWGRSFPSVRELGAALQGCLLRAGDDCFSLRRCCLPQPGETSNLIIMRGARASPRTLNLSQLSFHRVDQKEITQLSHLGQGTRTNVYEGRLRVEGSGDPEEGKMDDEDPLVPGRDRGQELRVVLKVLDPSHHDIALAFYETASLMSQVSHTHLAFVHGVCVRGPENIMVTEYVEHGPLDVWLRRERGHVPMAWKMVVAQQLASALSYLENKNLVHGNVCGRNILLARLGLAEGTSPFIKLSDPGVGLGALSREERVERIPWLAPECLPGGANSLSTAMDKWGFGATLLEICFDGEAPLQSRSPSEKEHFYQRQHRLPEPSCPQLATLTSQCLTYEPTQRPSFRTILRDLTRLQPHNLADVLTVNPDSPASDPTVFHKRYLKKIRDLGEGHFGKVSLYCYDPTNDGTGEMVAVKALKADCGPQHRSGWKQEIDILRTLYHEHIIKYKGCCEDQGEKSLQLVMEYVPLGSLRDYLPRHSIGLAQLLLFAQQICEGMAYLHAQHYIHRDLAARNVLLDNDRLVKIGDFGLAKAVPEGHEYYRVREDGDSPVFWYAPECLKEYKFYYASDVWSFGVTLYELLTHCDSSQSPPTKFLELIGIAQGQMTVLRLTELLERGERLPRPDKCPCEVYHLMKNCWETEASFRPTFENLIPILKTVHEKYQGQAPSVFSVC
Sequence of JAK3 (P52333 whole entry): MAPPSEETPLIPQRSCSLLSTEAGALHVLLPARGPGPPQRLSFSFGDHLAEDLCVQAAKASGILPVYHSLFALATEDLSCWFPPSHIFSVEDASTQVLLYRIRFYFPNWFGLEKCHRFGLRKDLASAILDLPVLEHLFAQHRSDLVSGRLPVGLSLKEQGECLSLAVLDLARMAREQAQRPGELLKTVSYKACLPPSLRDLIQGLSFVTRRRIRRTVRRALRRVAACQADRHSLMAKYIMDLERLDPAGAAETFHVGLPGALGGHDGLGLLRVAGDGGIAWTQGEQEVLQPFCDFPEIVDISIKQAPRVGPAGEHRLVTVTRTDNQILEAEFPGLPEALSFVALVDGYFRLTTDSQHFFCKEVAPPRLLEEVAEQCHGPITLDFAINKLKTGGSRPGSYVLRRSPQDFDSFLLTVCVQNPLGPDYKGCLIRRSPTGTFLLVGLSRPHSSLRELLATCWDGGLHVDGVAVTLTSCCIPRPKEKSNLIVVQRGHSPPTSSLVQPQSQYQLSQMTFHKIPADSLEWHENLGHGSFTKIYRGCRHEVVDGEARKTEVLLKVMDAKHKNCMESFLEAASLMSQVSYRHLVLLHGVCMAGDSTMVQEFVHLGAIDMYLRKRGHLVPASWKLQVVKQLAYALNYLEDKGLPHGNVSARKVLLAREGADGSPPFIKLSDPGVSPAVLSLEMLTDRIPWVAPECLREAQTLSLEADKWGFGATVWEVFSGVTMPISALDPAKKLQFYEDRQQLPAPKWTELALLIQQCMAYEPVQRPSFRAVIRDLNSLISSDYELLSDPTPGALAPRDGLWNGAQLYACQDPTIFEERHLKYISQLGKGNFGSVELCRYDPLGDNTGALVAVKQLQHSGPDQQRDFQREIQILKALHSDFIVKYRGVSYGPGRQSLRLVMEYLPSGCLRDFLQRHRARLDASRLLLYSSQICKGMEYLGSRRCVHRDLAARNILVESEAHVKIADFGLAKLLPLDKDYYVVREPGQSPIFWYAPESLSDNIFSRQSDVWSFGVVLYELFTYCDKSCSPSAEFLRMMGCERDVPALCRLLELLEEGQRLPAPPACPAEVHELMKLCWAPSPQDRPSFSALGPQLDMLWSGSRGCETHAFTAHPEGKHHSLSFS
Sequence of JAK1 (P23458 whole entry): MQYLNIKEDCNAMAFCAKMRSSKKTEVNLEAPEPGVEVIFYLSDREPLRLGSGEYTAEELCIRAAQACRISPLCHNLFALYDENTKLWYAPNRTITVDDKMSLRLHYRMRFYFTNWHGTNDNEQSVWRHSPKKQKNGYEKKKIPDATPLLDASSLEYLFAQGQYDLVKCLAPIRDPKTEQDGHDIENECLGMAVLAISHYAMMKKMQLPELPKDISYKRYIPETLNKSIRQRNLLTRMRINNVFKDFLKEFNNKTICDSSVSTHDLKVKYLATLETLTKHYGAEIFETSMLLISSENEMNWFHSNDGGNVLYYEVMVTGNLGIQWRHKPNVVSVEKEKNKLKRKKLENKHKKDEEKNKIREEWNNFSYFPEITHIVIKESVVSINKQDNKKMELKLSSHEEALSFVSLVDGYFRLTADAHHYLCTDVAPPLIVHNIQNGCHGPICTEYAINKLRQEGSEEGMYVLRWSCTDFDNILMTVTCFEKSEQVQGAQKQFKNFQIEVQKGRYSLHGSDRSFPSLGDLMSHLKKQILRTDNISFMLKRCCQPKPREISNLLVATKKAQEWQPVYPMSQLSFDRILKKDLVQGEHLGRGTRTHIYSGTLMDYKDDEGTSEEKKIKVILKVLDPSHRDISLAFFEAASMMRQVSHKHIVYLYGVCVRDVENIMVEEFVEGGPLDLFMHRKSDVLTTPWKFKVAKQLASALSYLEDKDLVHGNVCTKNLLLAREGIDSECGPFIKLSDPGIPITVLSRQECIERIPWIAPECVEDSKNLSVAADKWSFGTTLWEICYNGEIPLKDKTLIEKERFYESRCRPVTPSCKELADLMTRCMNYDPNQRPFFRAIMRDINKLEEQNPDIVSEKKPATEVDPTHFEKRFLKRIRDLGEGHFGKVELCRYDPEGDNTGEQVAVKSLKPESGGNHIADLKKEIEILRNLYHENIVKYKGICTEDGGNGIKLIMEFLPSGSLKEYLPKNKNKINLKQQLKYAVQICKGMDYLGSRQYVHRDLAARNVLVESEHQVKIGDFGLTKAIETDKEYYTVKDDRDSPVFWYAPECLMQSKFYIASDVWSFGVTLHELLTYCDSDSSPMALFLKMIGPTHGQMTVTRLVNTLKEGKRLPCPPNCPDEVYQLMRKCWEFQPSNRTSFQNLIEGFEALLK

For the compound `CCc1cc(O)c(F)cc1-c1ccc2c(-c3nc4c([nH]3)CCN(CC3CCCN3C3COC3)C4)n[nH]c2c1` (stereo not drawn) [Example 4-8], the Ki on JAK1 is 1 to 3.16 nM. The IC50 in series [1] (setting [5]) is 39.8 to 1000 nM.

With `CCc1cc(O)c(F)cc1-c1ccc2c(-c3nc4c([nH]3)CCN(C[C@H]3COCCN3)C4)n[nH]c2c1` [Example 13, (S)-5-Ethyl-2-fluoro-4-(3-(5-(morpholin-3-ylmethyl)-4,5,6,7-tetrahydro-1H-imidazo[4,5-c]pyridin-2-yl)-1H-indazol-6-yl)phenol], in series [2], the inhibition in vivo at 500 µg/mL lay within 33 to 50%. The Ki is less than 0.1 nM at JAK2, 0.316 to 1 nM at Tyk2 and 0.1 to 1 nM on JAK3. Further, the “Percent Inhibition of Alternaria-induced BALF Eosinophils” value (“Percent Inhibition” for short) in series [3] worked out at 82%. In series [1] (setting [6]), the IC50 was less than 10 nM. The “Lung to Plasma ratio Assay 4” value in series [4] is reported as “A (A denotes a ratio >100)”.

Consider `CCc1cc(O)c(F)cc1-c1ccc2c(-c3nc4c([nH]3)CCN(C3CCN(C)CC3)C4)n[nH]c2c1` [Example 6, 5-Ethyl-2-fluoro-4-(3-(5-(1-methylpiperidin-4-yl)-4,5,6,7-tetrahydro-1H-imidazo[4,5-c]pyridin-2-yl)-1H-indazol-6-yl)phenol], for which the inhibition in vivo at 500 µg/mL in series [2] lay in the range of 50 to 65%. The Ki on JAK2 was less than 0.1 nM; on Tyk2 it was 0.1 to 1 nM; on JAK3, 0.1 to 1 nM. In series [3], the “Percent Inhibition” value amounted to 88%. Further, the IC50 in series [1] (setting [6]) is less than 10 nM. Further, the “Lung to Plasma ratio Assay 4” value in series [4] was “B (B denotes a ratio between 50 and 100)”.

Take `CCc1cc(O)c(F)cc1-c1ccc2c(-c3nc4c([nH]3)CCN(C3CN(C)C3)C4)n[nH]c2c1` [Example 1, 5-Ethyl-2-fluoro-4-(3-(5-(1-methylazetidin-3-yl)-4,5,6,7-tetrahydro-1H-imidazo[4,5-c]pyridin-2-yl)-1H-indazol-6-yl)phenol]: in series [2], the inhibition in vivo at 500 µg/mL is more than 65%. At JAK2, this compound registered a Ki of less than 0.1 nM. In series [3], the “Percent Inhibition” value was 98%. Besides, the IC50 in series [1] (setting [6]) was less than 10 nM. For the same compound, the “Lung to Plasma ratio Assay 4” value in series [4] was “B (B denotes a ratio between 50 and 100)”.

As for `CCc1cc(O)c(F)cc1-c1ccc2c(-c3nc4c([nH]3)CCN(CCN(C)C)C4)n[nH]c2c1` [Example 7, 4-(3-(5-(2-(dimethylamino)ethyl)-4,5,6,7-tetrahydro-1H-imidazo[4,5-c]pyridin-2-yl)-1H-indazol-6-yl)-5-ethyl-2-fluorophenol], the inhibition in vivo at 500 µg/mL in series [2] was more than 65%. At JAK2, this compound returned a Ki of less than 0.1 nM. Besides, in series [3], the “Percent Inhibition” value was 96%. For the same compound, the IC50 in series [1] (setting [6]) was less than 10 nM. Further, the “Lung to Plasma ratio Assay 4” value in series [4] was “B (B denotes a ratio between 50 and 100)”.

For the compound `CCc1cc(O)c(F)cc1-c1ccc2c(-c3nc4c([nH]3)CCN(CCN(C)C(C)CC)C4)n[nH]c2c1` (stereo not drawn) [Example 10, 4-(3-(5-(2-(sec-butyl(methyl)amino)ethyl)-4,5,6,7-tetrahydro-1H-imidazo[4,5-c]pyridin-2-yl)-1H-indazol-6-yl)-5-ethyl-2-fluorophenol], the inhibition in vivo at 500 µg/mL in series [2] lay in the range of 33 to 50%. The values for the Ki on JAK2, on Tyk2 and on JAK3 were less than 0.1 nM, 0.1 to 1 nM and 0.1 to 1 nM, respectively. In series [1] (setting [6]), the IC50 is less than 10 nM. In addition, in series [4], the “Lung to Plasma ratio Assay 4” value is “B (B denotes a ratio between 50 and 100)”.

For the compound `CCc1cc(O)c(F)cc1-c1ccc2c(-c3nc4c([nH]3)CCN(CC3CCN3C3COC3)C4)n[nH]c2c1` (stereo not drawn) [Example 8-11], the Ki on JAK1 is 1 to 3.16 nM. The IC50 in series [1] (setting [5]) was 39.8 to 1000 nM.

`CCc1cc(O)c(F)cc1-c1ccc2c(-c3nc4c([nH]3)CCN(CCNC3CC(OC)C3)C4)n[nH]c2c1` (stereo not drawn) [Example 8, 5-Ethyl-2-fluoro-4-(3-(5-(2-((3-methoxycyclobutyl)amino)ethyl)-4,5,6,7-tetrahydro-1H-imidazo[4,5-c]pyridin-2-yl)-1H-indazol-6-yl)phenol]: the inhibition in vivo at 500 µg/mL in series [2] fell in the range of 50 to 65%. The Ki was less than 0.1 nM at JAK2, 0.1 to 1 nM at Tyk2 and 0.1 to 1 nM on JAK3. Besides, the “Percent Inhibition” value in series [3] was determined as 60%. Also, the IC50 in series [1] (setting [6]) was less than 10 nM. Also, the “Lung to Plasma ratio Assay 4” value in series [4] is given as “A (A denotes a ratio >100)”.

As for `CCc1cc(O)c(F)cc1-c1ccc2c(-c3nc4c([nH]3)CCN(C3CNC3)C4)n[nH]c2c1` [Example 2, 4-(3-(5-(azetidin-3-yl)-4,5,6,7-tetrahydro-1H-imidazo[4,5-c]pyridin-2-yl)-1H-indazol-6-yl)-5-ethyl-2-fluorophenol], the inhibition in vivo at 500 µg/mL in series [2] was in the range of 33 to 50%. The Ki at JAK2 is less than 0.1 nM; at Tyk2, 0.1 to 1 nM. In addition, in series [3], the “Percent Inhibition” value is given as 93%. In addition, the IC50 in series [1] (setting [6]) was 10 to 39.8 nM. Moreover, the “Lung to Plasma ratio Assay 4” value in series [4] was “C (C denotes a ratio between 10 and 50)”.

Take `CCc1cc(O)c(F)cc1-c1ccc2c(-c3nc4c([nH]3)CCN(C3CN(C(C)C)C3)C4)n[nH]c2c1` [Example 3, 5-ethyl-2-fluoro-4-(3-(5-(1-isopropylazetidin-3-yl)-4,5,6,7-tetrahydro-1H-imidazo[4,5-c]pyridin-2-yl)-1H-indazol-6-yl)phenol]: the inhibition in vivo at 500 µg/mL in series [2] was more than 65%. In addition, the Ki on JAK2 was less than 0.1 nM; at Tyk2, 0.1 to 1 nM; on JAK3, 0.1 to 1 nM. The “Percent Inhibition” value in series [3] is 61%. Besides, the IC50 in series [1] (setting [6]) was less than 10 nM. The “Lung to Plasma ratio Assay 4” value in series [4] is “C (C denotes a ratio between 10 and 50)”.

`CCc1cc(O)c(F)cc1-c1ccc2c(-c3nc4c([nH]3)CCN(CCN3CCC[C@@H]3C)C4)n[nH]c2c1` [Example 15, (S)-5-ethyl-2-fluoro-4-(3-(5-(2-(2-methylpyrrolidin-1-yl)ethyl)-4,5,6,7-tetrahydro-1H-imidazo[4,5-c]pyridin-2-yl)-1H-indazol-6-yl)phenol]: the inhibition in vivo at 500 µg/mL in series [2] fell in the range of 50 to 65%. The Ki at JAK2 was less than 0.1 nM; at Tyk2, 0.316 to 1 nM; on JAK3, 0.1 to 1 nM. For the same compound, in series [1] (setting [6]), the IC50 was less than 10 nM. For the same compound, the “Lung to Plasma ratio Assay 4” value in series [4] is reported as “A (A denotes a ratio >100)”.
